Source: patent US9926588B2, “Method for testing and screening P38 MAP kinase modifiers” (THE TRUSTEES OF THE UNIVERSITY OF PENNSYLVANIA, priority 2007, dated 2018)

Columns and labels:
[1] = system: SMN sub-cellular localization in HeLa PV cells; test: SMN sub-cellular localization by indirect immunofluorescence (anti-SMN 2B1); assay type: cell-based; details: for redistribution of SMN from the cytoplasm to the nucleus (accumulation of SMN in the nucleus): short treatment (2-6 hours); for immunostaining of SMN showing nuclear accumulation (FIG. 8): emetine, puromycin, thapsigargin 10 μM, tunicamycin 10 μg/ml; for nuclear translocation of SMN at longer times: >24 hr (FIG. 5a); for concentration dependence of the effect on nuclear localization of SMN: HeLa cells (CHX FIG. 3b; VPA 2-10 mM FIG. 5b)
Experimental: (§1) HeLa PV were cultured in Dulbecco's modified Eagle's medium (Invitrogen) supplemented with 10% fetal bovine serum (Invitrogen). For screening, cells were seeded onto 384-well plates or, for specific experiments, on glass coverslips the day before treatment. Compounds were added directly into the culture medium to the indicated concentration and the cells were then maintained at 37° C. in a 5% CO2 humidified atmosphere for the duration of the treatment. Dispensing of compounds and other automatic liquid handling steps were performed with a Beckman FX multi-channel system equipped with Hudson Crane robotic systems.
(§2) The following mouse monoclonal antibodies were used for indirect immunofluorescence: 2B1 (anti-SMN), 2E17 (anti-Gemin2), 12H12 (anti-Gemin3), 10G11 (anti-Gemin5), 6E2 (anti-Gemin7), 10E10 (anti-PABP), 6BG10 (anti-FXR1), Y12 (anti-Sm) and 9H10 (anti-hnRNP A1). An affinity-purified rabbit polyclonal antibody was used to detect Gemin6.
(§3) Indirect immunofluorescence on HeLa PV cells was performed as follows: HeLa cells, plated on glass coverslips, were briefly washed with PBS, fixed in 2% formaldehyde/PBS for 20 minutes at room temperature, permeabilized in 0.5% Triton X-100/PBS for 5 min at room temperature. Cells were blocked in 3% bovine serum albumin for 1 hour at room temperature. Double-label immunofluorescence experiments were performed by separate sequential incubations of each primary antibody, diluted in PBS containing 3% bovine serum albumin, followed by the specific secondary coupled to fluorescein isothiocyanate or TXRD. All incubations were at room temperature for 1 hour. Indirect epifluorescence microscopy was performed with a Nikon Eclipse E800 microscope. Digital images were collected with a Cook Sensicam high performance camera and processed with the IP laboratory software. Processing of samples for immunofluorescence microscopy on cells cultured in 384-well plates was automated and performed with the aid of microplate washers (ELX405, Bio-Tek) in a similar manner to that previously used for individual samples on glass slides. The cells were also stained with DAPI to allow definition of the nucleus in each cell. Digital images were acquired with an automated microscopy and analysis system (IN Cell Analyzer 1000, GE Healthcare). Images were analyzed using automated algorithms with parameters set to calculate mean pixel intensity in each nucleus (defined by DAPI staining and acquired in a separate channel), cytoplasm, and total cell, as well as the relevant calculated ratios of these values.
Based on the results obtained in Example 1, a library of ˜5,000 biologically active small molecules was screened on HeLa cells in 384-well plates. Each well was incubated with a different compound (at 10 μM) and the cells were processed for indirect immunofluorescence. Digital images were collected from six fields in each well and analyzed using imaging algorithms for multiple parameters including relative nuclear and cytoplasmic intensities, and number, size and signal intensity of Gems. DAPI-stained images were collected in a separate channel to define the boundary of each nucleus. Images of individual fields in wells were flagged by the software as showing a significant change in SMN sub-cellular localization. These individual wells were examined directly, and active compounds were re-tested for verification (FIG. 2).

p38 MAPK = test: Effect of p38 MAPK activators and inhibitors on SMN complex components relocalization under protein synthesis inhibition; assay type: cell-based; details: for SMN accumulation in the nucleus in the presence of a protein synthesis inhibitor: with a protein synthesis inhibitor such as cycloheximide
Experimental: as §1, §3
Next, the effect of p38 MAPK activators and inhibitors on SMN complex components relocalization under conditions of protein synthesis inhibition was monitored.

[2] = system: Gemins 2, 3, 5, 6 and 7 localization in HeLa cells; test: Immunostaining of Gemins (SMN complex components) in treated cells; assay type: cell-based
Experimental: as §2
Indirect immunofluorescence on HeLa PV cells was performed as follows: HeLa cells, plated on glass coverslips, were briefly washed with PBS, fixed in 2% formaldehyde/PBS for 20 minutes at room temperature, permeabilized in 0.5% Triton X-100/PBS for 5 min at room temperature. Cells were blocked in 3% bovine serum albumin for 1 hour at room temperature. Double-label immunofluorescence experiments were performed by separate sequential incubations of each primary antibody, diluted in PBS containing 3% bovine serum albumin, followed by the specific secondary coupled to fluorescein isothiocyanate or TXRD. All incubations were at room temperature for 1 hour. Indirect epifluorescence microscopy was performed with a Nikon Eclipse E800 microscope. […] Images were analyzed using automated algorithms with parameters set to calculate mean pixel intensity in each nucleus (defined by DAPI staining and acquired in a separate channel), cytoplasm, and total cell, as well as the relevant calculated ratios of these values. […]

[3] = system: hnRNP A1, PABP, FXR1 and snRNPs localization in HeLa cells; test: Localization of other nuclear and cytoplasmic proteins (specificity); assay type: cell-based; details: 6 hrs of 10 μM CHX (FIG. 3c)
Experimental: as §2
Indirect immunofluorescence on HeLa PV cells was performed as follows: HeLa cells, plated on glass coverslips, were briefly washed with PBS, fixed in 2% formaldehyde/PBS for 20 minutes at room temperature, permeabilized in 0.5% Triton X-100/PBS for 5 min at room temperature. Cells were blocked in 3% bovine serum albumin for 1 hour at room temperature. Double-label immunofluorescence experiments were performed by separate sequential incubations of each primary antibody, diluted in PBS containing 3% bovine serum albumin, followed by the specific secondary coupled to fluorescein isothiocyanate or TXRD. All incubations were at room temperature for 1 hour. Indirect epifluorescence microscopy was performed with a Nikon Eclipse E800 microscope. […] Images were analyzed using automated algorithms with parameters set to calculate mean pixel intensity in each nucleus (defined by DAPI staining and acquired in a separate channel), cytoplasm, and total cell, as well as the relevant calculated ratios of these values.

HeLa cells = test: Cell viability / toxicity of treated cells; details: overnight treatment with 10 μM CHX

CC[C@H]1CN2CCc3cc(OC)c(OC)cc3[C@@H]2C[C@@H]1C[C@H]1NCCc2cc(OC)c(OC)cc21 [emetine]
redistribution of SMN from the cytoplasm to the nucleus (accumulation of SMN in the nucleus) ([1]; HeLa cells): showed the same effect as cycloheximide | immunostaining of SMN showing nuclear accumulation (FIG. 8) ([1]; HeLa cells): nuclear accumulation

O=C(CCCCCN1C(=O)c2cccc3cccc(c23)C1=O)NO [scriptaid]
nuclear translocation of SMN at longer times ([1]; HeLa cells): caused the same effect as protein synthesis inhibitors

TNFα
localization of SMN complex component, p38 MAPK activator combined with CHX (p38 MAPK; 150 ng/ml TNFα + 10 μM CHX, HeLa cells, FIG. 6): still remained in the cytoplasm | localization of SMN complex components, p38 MAPK activator alone (p38 MAPK; 150 ng/ml TNFα, HeLa cells, FIG. 6): accumulation of SMN complex components in the cytoplasm | SMN accumulation in the nucleus in the presence of a protein synthesis inhibitor (p38 MAPK): inhibit SMN accumulation in the nucleus

C[C@@H]1C[C@@H]([C@H](O)CC2CC(=O)NC(=O)C2)C(=O)[C@@H](C)C1 [cycloheximide]
treatment time after which little SMN was detected in the cytoplasm ([1]; HeLa cells): ≥ 8 h | treatment time after which the effect on SMN redistribution was evident ([1]; HeLa cells): 2 h | concentration dependence of the effect on nuclear localization of SMN [1]: concentration-dependent | concentrations exhibiting a clear effect on redistribution of SMN from the cytoplasm to the nucleus ([1]; HeLa cells, FIG. 3a,b): 0.1 to 40 µM | redistribution of SMN from the cytoplasm to the nucleus (accumulation of SMN in the nucleus) ([1]; HeLa cells): most striking accumulation of SMN in the nucleus | reversibility of SMN nuclear accumulation ([1]; cells washed and placed in fresh medium devoid of cycloheximide): reversible | relocation of SMN complex components (Gemins) to the nucleus ([2]; HeLa cells, 6 hours 10 μM CHX (FIG. 4), Gemin3 and Gemin5 excepted): causes most of the components of the SMN complex to accumulate in the nucleus | localization of other nuclear and cytoplasmic proteins (hnRNP A1, PABP, FXR1, snRNPs) [3]: not significantly affected | cell viability (HeLa cells): no reduction in cell viability

COc1ccc(C[C@H]2NC[C@H](O)[C@H]2OC(C)=O)cc1 [Anisomycin]
localization of SMN complex components, Anisomycin alone (p38 MAPK; treated cell (FIG. 6: 1 μg/ml Anisomycin)): accumulate in the cytoplasm | SMN accumulation in the nucleus in the presence of a protein synthesis inhibitor (p38 MAPK): inhibit SMN accumulation in the nucleus

CCOC(=O)CN1C(=O)CC(C[C@@H](O)[C@@H]2C[C@@H](C)C[C@H](C)C2=O)CC1=O [cycloheximide-N-ethylethanoate]
redistribution of SMN from the cytoplasm to the nucleus (accumulation of SMN in the nucleus) ([1]; HeLa cells): did not show any effect

Oc1ccc(-c2nc(-c3ccncc3)c(-c3ccc(F)cc3)[nH]2)cc1 [SB202190]
localization of SMN complex components, p38 MAPK inhibitor combined with Anisomycin (p38 MAPK; 10 μM SB202190 + 1 μg/ml Anisomycin, HeLa cells, FIG. 6): accumulation of SMN complex components in the nucleus | localization of SMN complex components, p38 MAPK inhibitor combined with CHX (p38 MAPK; 10 μM SB202190 + 10 μM CHX, HeLa cells, FIG. 6): accumulation of SMN complex components in the nucleus

CCCC(CCC)C(=O)O [valproic acid]
concentration dependence of the effect on nuclear localization of SMN [1]: clear concentration dependence effect | nuclear translocation of SMN at longer times ([1]; HeLa cells): caused the same effect as protein synthesis inhibitors | localization of Gemin3 and Gemin5 ([2]; 24 hour treatment with VPA (FIG. 5c)): remain predominantly cytoplasmic

tunicamycin
redistribution of SMN from the cytoplasm to the nucleus (accumulation of SMN in the nucleus) ([1]; HeLa cells): caused SMN to accumulate in the nucleus | immunostaining of SMN showing nuclear accumulation (FIG. 8) ([1]; HeLa cells): nuclear accumulation

C/C=C(/C)C(=O)O[C@H]1C(C)=C2[C@H]([C@@H]1OC(=O)CCCCCCC)[C@@](C)(OC(C)=O)C[C@H](OC(=O)CCC)[C@@]1(O)[C@H]2OC(=O)[C@@]1(C)O [thapsigargin]
redistribution of SMN from the cytoplasm to the nucleus (accumulation of SMN in the nucleus) ([1]; HeLa cells): caused SMN to accumulate in the nucleus | immunostaining of SMN showing nuclear accumulation (FIG. 8) ([1]; HeLa cells): nuclear accumulation

CC(/C=C/C(=O)NO)=C\[C@@H](C)C(=O)c1ccc(N(C)C)cc1 [trichostatin A]
nuclear translocation of SMN at longer times ([1]; HeLa cells): caused the same effect as protein synthesis inhibitors

COc1ccc(C[C@H](N)C(=O)N[C@H]2[C@@H](O)[C@H](n3cnc4c(N(C)C)ncnc43)O[C@@H]2CO)cc1 [puromycin]
redistribution of SMN from the cytoplasm to the nucleus (accumulation of SMN in the nucleus) ([1]; HeLa cells): showed the same effect as cycloheximide | immunostaining of SMN showing nuclear accumulation (FIG. 8) ([1]; HeLa cells): nuclear accumulation
